Data reported in US11597703B2, “Caspase inhibitors and methods of use thereof” (Histogen Inc., priority 2019, dated 2023).

Tests used:
IL-1β = experiment: Inhibition of LPS-stimulated IL-1β in THP-1 cells (ELISA); format: cell-based, human; conditions: Homo sapiens, 10 micromolar, read-out: Percent Inhibition of IL1-β
Procedure: Compounds in the present invention were tested in THP-1 cells, a human monocyte cell line, to assess the inhibition of the inflammatory cytokine IL-1β. THP-1 cells (ATCC TIB-202) were grown in culture and seeded in 96 well plates at a concentration of 200,000 cells per well with a total volume of 150 μL. Plated cells were incubated overnight at 37 degrees C. under an atmosphere of 5% CO2. Media was removed from cells which were washed with PBS. Test compounds were diluted in DMSO stock solution and serially diluted appropriately for initial screening and IC50 determinations. LPS in serum free media (140 μL of […]) was added to each well to stimulate IL-1β production. IL-1β was measured by ELISA assay kit (R&D Systems) per the manufacturers instructions.
IC50 values for the inhibition of IL-1 in THP 1 cells were determined from dose response studies.

Caspase 6 = target: T1, Caspase 6 (Homo sapiens, UniProt P55212); experiment: Caspase 6 enzymatic inhibition assay, IC50; format: biochemical; conditions: read-out: Caspase 6 enzyme inhibition IC50
T1 construct: purchased Enzo Biosciences
T1 sequence (P55212 24-179 limits assumed): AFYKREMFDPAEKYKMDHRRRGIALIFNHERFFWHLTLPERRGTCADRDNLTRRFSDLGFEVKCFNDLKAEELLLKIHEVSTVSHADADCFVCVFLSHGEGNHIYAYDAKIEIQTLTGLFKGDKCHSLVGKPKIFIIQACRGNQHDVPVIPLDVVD
T1 sequence (P55212 194-293 limits assumed): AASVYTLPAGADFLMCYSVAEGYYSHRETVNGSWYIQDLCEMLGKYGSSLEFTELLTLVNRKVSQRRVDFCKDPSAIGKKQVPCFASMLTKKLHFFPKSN
Procedure: (§1) Human caspases were purchased from Enzo Biosciences and used according to the manufacturer's instructions. An exemplary caspase assay, for Caspase-1, is provided below:
(§2) Enzymatic assays were conducted for Caspase-3, 6 and 7 activity according to the manufacture's instructions.

Caspase-1 = target: T2, Caspase-1 (Homo sapiens, UniProt P29466); experiment: Caspase-1 enzyme inhibition assay (Ac-YVAD-pNA substrate), IC50; format: biochemical
T2 construct: purchased Enzo Biosciences
T2 sequence (P29466 120-297 limits assumed): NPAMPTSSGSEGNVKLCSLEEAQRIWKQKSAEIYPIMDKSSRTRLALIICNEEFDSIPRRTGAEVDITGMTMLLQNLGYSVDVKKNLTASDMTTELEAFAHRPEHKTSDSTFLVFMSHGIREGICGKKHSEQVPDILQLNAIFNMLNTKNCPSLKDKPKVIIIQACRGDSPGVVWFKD
T2 sequence (P29466 317-404 limits assumed): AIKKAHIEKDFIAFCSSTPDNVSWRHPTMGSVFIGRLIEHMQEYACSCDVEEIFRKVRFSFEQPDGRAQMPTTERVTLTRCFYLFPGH
Procedure: as §1
Caspase-1 was diluted to 10 U/μl in assay buffer consisting of 50 mM HEPES, pH 7.4, 100 mM NaCl, 0.1% CHAPS, 1 mM EDTA, 10% glycerol and 10 mM DTT.
45 μl of assay buffer was added into ½ volume microtiter plate. The plate was allowed to equilibrate to assay temperature. 5 μl of Caspase-1 (10 U/μl) was added to each appropriate well. Two 2 blank wells containing assay buffer alone without Caspase-1 were included on the plate.
The reaction was started by the addition of 50 μl Ac-YVAD-pNA substrate, for a final substrate concentration of 200 μM. The reaction was continuously monitored at 405 nm. The data was graphed as OD405 nm vs time, and the slope was determined over the linear portion of the curve. The rates in OD/min were converted to substrate/min using an extinction coefficient for p-nitroaniline of 10,500M-1 cm-1, and were adjusted for pathlength of sample. […]

Caspase 7 = target: T3, Caspase 7 (Homo sapiens, UniProt P55210); experiment: Caspase 7 enzymatic inhibition assay, IC50; format: biochemical; conditions: read-out: Caspase 7 enzyme inhibition IC50
T3 construct: purchased Enzo Biosciences
T3 sequence (P55210 24-198 limits assumed): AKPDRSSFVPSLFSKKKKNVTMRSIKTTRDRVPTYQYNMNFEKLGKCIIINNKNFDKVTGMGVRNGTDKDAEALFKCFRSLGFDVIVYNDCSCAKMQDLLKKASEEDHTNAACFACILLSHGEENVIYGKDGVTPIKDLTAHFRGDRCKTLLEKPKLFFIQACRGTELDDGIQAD
T3 sequence (P55210 207-303 limits assumed): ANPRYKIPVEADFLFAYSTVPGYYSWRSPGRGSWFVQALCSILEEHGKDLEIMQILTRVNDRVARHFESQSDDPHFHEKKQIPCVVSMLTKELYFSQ
Procedure: as §1, §2

Caspase-3 = target: T4, Caspase-3 (Homo sapiens, UniProt P42574); experiment: Caspase-3 enzymatic inhibition assay, IC50; format: biochemical; conditions: read-out: Caspase 3 enzyme inhibition IC50
T4 construct: purchased Enzo Biosciences
T4 sequence (P42574 29-175 limits assumed): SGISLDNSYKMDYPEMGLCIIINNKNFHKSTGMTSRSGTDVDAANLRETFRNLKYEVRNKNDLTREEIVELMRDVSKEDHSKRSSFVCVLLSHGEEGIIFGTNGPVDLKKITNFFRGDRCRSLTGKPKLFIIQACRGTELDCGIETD
T4 sequence (P42574 176-277 limits assumed): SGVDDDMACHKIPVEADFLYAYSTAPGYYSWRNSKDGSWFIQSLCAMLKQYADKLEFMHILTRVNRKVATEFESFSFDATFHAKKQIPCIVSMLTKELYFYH
Procedure: as §1, §2

Jurkat cells = experiment: Prevention of Fas-induced apoptosis in Jurkat cells (WST-8); format: cell-based; conditions: Homo sapiens, 10 micromolar, read-out: % Prevention of Fas - induced Jurkat cell apoptosis at 10 micromolar
Procedure: Compounds of the present invention were evaluated in Jurkat cells, a human T-lymphocyte cell line, to evaluate compounds ability to inhibit apoptotic cell death. Jurkat cells, Clone E6-1 (ATCC TIB-152) were grown in culture maintain a cell density between 0.5-2 million cells/mL. Cells were tested for viability and countion with typan blue stain before use. Test compounds were addedd to 96 well plates and Jurkat cells were added at a concentration of approximately 100,000 cells per well and mixed thoroughly by action of pipetting. Plated cells were incubated for 1 hour at 37 degrees C. under an atmosphere of 5% CO2. Anti-Fas antibody was added and mixed by pipet action. Plates were incubated for 20 hours at 37 degrees C. under an atmosphere of 5% CO2. 10 microliters of thawed WST-8 solution was added to each well and incubated for 4 hours. Absorbance was measured at 450 nm and control reading at […] using a SpectraMax ID5 plate reader. Apoptotic cell death is executed by caspases 3, 7 and 6. Compounds that lack activity against these caspases will not prevent the death of Jurkat cells and is a functional test of selectivity for inflammatory over apoptotic caspases.
IC50 values to protect against Fas induced apoptosis and improve survival of Jurkat cells were determined from dose response studies.

SMILES | inhibition at 10 µM (IL-1β) [%] | IC50 (Caspase 6) [nM] | IC50 (Caspase-1) [nM] | IC50 (Caspase 7) [nM] | IC50 (Caspase-3) [nM] | inhibition at 10 µM (Jurkat cells) [%]
C[C@H](NC(=O)C(=O)Nc1c(F)cccc1F)C(=O)N[C@@H](CCOCc1ccsc1)C(=O)COc1c(F)c(F)cc(F)c1F [Example 4, N^1-(2,6-difluorophenyl)-N^2—((S)-1-oxo-1-(((S)-2-oxo-1-(2,3,5,6-tetrafluorophenoxy)-5-(thiophen-3-ylmethoxy)pentan-3-yl)amino)propan-2-yl)oxalamide] | 50 to 90 | ≥ 1000 | 10 to 100 | ≥ 1000 | ≥ 1000 | ≤ 10
COCC[C@H](NC(=O)[C@H](C)NC(=O)C(=O)Nc1c(F)cccc1F)C(=O)COc1c(F)c(F)cc(F)c1F [Example 5, N^1-(2,6-Difluorophenyl)-N^2—((S)-1-(((S)-5-methoxy-2-oxo-1-(2,3,5,6-tetrafluorophenoxy)pentan-3-yl)amino)-1-oxopropan-2-yl)oxalamide] | 25 to 50 | ≥ 1000 | 100 to 1000 | ≥ 1000 | ≥ 1000 | ≤ 10
C[C@H](NC(=O)C(=O)Nc1c(F)cccc1F)C(=O)N[C@@H](CCOC(=O)Oc1ccccc1)C(=O)COc1c(F)c(F)cc(F)c1F [Example 7, (S)-3-((S)-2-(2-((2,6-Difluorophenyl)amino)-2-oxoacetamido)propanamido)-4-oxo-5-(2,3,5,6-tetrafluorophenoxy)pentyl phenyl carbonate] | 50 to 90 | ≥ 1000 | 10 to 100 | ≥ 1000 | ≥ 1000 | ≤ 10
C[C@H](NC(=O)C(=O)Nc1c(F)cccc1F)C(=O)N[C@@H](CCOC(=O)c1ccccc1)C(=O)COc1c(F)c(F)cc(F)c1F [Example 8, (S)-3-((S)-2-(2-((2,6-Difluorophenyl)amino)-2-oxoacetamido)propanamido)-4-oxo-5-(2,3,5,6-tetrafluorophenoxy)pentyl benzoate] | 25 to 50 | ≥ 1000 | 100 to 1000 | ≥ 1000 | ≥ 1000 | ≤ 10
O=C(O)CC[C@H](NC(=O)CNC(=O)C(=O)Nc1c(F)cccc1F)C(=O)COc1c(F)c(F)cc(F)c1F [Example 9, (S)-4-(2-(2-((2,6-difluorophenyl)amino)-2-oxoacetamido)acetamido)-5-oxo-6-(2,3,5,6-tetrafluorophenoxy)hexanoic acid] | > 90 | ≥ 1000 | ≤ 10 | ≥ 1000 | ≥ 1000 | ≤ 10
C[C@H](NC(=O)C(=O)Nc1c(F)cccc1F)C(=O)N[C@@H](CCC(=O)O)C(=O)COc1cc(C(F)(F)F)cc(C(F)(F)F)c1 [Example 10, (S)-6-(3,5-bis(trifluoromethyl)phenoxy)-4-((S)-2-(2-((2,6-difluorophenyl)amino)-2-oxoacetamido)propanamido)-5-oxohexanoic acid] | > 90 | ≥ 1000 | ≤ 10 | ≥ 1000 | ≥ 1000 | ≤ 10
C[C@H](NC(=O)C(=O)Nc1ccccc1C(C)(C)C)C(=O)N[C@@H](CCC(=O)O)C(=O)COc1c(F)c(F)cc(F)c1F [Example 11, (S)-4-((S)-2-(2-((2-(tert-Butyl)phenyl)amino)-2-oxoacetamido)propanamido)-5-oxo-6-(2,3,5,6-tetrafluorophenoxy)hexanoic acid] | > 90 | ≥ 1000 | ≤ 10 | 100 to 1000 | ≥ 1000 | ≤ 10
CC(C)(NC(=O)C(=O)Nc1c(F)cccc1F)C(=O)N[C@@H](CCC(=O)O)C(=O)COc1c(F)c(F)cc(F)c1F [Example 12, (S)-4-(2-(2-((2,6-Difluorophenyl)amino)-2-oxoacetamido)-2-methylpropanamido)-5-oxo-6-(2,3,5,6-tetrafluorophenoxy)hexanoic acid] | > 90 | ≥ 1000 | ≤ 10 | ≥ 1000 | ≥ 1000 | ≤ 10
C[C@H](NC(=O)C(=O)Nc1c(F)cccc1F)C(=O)N[C@@H](CCCC(=O)O)C(=O)COc1c(F)c(F)cc(F)c1F [Example 13, (S)-5-((S)-2-(2-((2,6-Difluorophenyl)amino)-2-oxoacetamido)propanamido)-6-oxo-7-(2,3,5,6-tetrafluorophenoxy)heptanoic acid] | 50 to 90 | ≥ 1000 | 10 to 100 | ≥ 1000 | ≥ 1000 | ≤ 10
O=C(O)CC[C@H](NC(=O)C1(NC(=O)C(=O)Nc2c(F)cccc2F)CCCC1)C(=O)COc1c(F)c(F)cc(F)c1F [Example 14, (S)-4-(1-(2-((2,6-Difluorophenyl)amino)-2-oxoacetamido)cyclopentane-1-carboxamido)-5-oxo-6-(2,3,5,6-tetrafluorophenoxy)hexanoic acid] | > 90 | 100 to 1000 | ≤ 10 | 100 to 1000 | 100 to 1000 | ≤ 10
C[C@H](NC(=O)C(=O)Nc1c(F)cccc1F)C(=O)N[C@@H](CCC(=O)O)C(=O)COc1ccnc(C(F)(F)F)n1 [Example 15, (S)-4-((S)-2-(2-((2,6-Difluorophenyl)amino)-2-oxoacetamido)propanamido)-5-oxo-6-((2-(trifluoromethyl)pyrimidin-4-yl)oxy)hexanoic acid] | > 90 | ≥ 1000 | ≤ 10 | ≥ 1000 | ≥ 1000 | ≤ 10
O=C(O)CC[C@H](NC(=O)Cn1ccc2ccc(Cl)cc2c1=O)C(=O)COc1c(F)c(F)cc(F)c1F [Example 16, (S)-4-(2-(7-Chloro-1-oxoisoquinolin-2(1H)-yl)acetamido)-5-oxo-6-(2,3,5,6-tetrafluorophenoxy)hexanoic acid] | > 90 | ≥ 1000 | ≤ 10 | ≥ 1000 | ≥ 1000 | ≤ 10
